Laboratory results taken from patent US9122153B2, “Cyclic compound, method for producing same, composition, and method for forming resist pattern” (MITSUBISHI GAS CHEMICAL COMPANY, INC., priority 2011, dated 2015).

Experiment: Solubility test of compound in safe solvent
Format: physicochemical
Settings: 23° C., ultrasonic wave 30 minutes, visually evaluated; for CHN (dissolution amount): cyclohexanone; for PGME (dissolution amount): propylene glycol monomethyl ether
Protocol: The compound was precisely weighed in a test tube at 23° C.; and the target solvent was added to the compound so that a predetermined concentration of the liquid to be obtained is set; a ultrasonic wave was applied to the liquid in an ultrasonic washing machine for 30 minutes; and the state of the resulting liquid was visually evaluated.
The solubility of the compound in propylene glycol monomethyl ether (PGME) and cyclohexanone (CHN) was evaluated according to the following standard using the dissolution amount in each solvent. • A: 5.0% by weight≦dissolution amount • B: 3.0% by weight≦dissolution amount<5.0% by weight • C: dissolution amount<3.0% by weight • (2) Resolution, Shape, Roughness (LER), and Sensitivity of Resist Pattern
The dissolution amounts of compounds obtained in the above Synthesis Examples 1 and 2 and Synthesis Comparative Example 1 in propylene glycol monomethyl ether (PGME) and cyclohexanone (CHN) were evaluated using the above evaluation method and standard.

SMILES | CHN (dissolution amount) | PGME (dissolution amount)
Oc1cc(O)c2cc1C(c1ccc(C3CCCCC3)cc1)c1cc(c(O)cc1O)C(c1ccc(C3CCCCC3)cc1)c1cc(c(O)cc1O)C(c1ccc(C3CCCCC3)cc1)c1cc(c(O)cc1O)C2c1ccc(C2CCCCC2)cc1 (stereo not drawn) [CR-1A, reference compound] | C (dissolution amount<3.0% by weight) | B (3.0% by weight≦dissolution amount<5.0% by weight)
Oc1cc(O)c2cc1C(c1ccc(I)cc1)c1cc(c(O)cc1O)C(c1ccc(I)cc1)c1cc(c(O)cc1O)C(c1ccc(I)cc1)c1cc(c(O)cc1O)C2c1ccc(I)cc1 (stereo not drawn) [CR-1] | A (5.0% by weight≦dissolution amount) | A (5.0% by weight≦dissolution amount)
Oc1cc(O)c2cc1C(c1ccc(CI)cc1)c1cc(c(O)cc1O)C(c1ccc(CI)cc1)c1cc(c(O)cc1O)C(c1ccc(CI)cc1)c1cc(c(O)cc1O)C2c1ccc(CI)cc1 (stereo not drawn) [CR-2] | A (5.0% by weight≦dissolution amount) | A (5.0% by weight≦dissolution amount)
